# Measured values as given in paper PMC4805781 (International Journal for Parasitology: Drugs and Drug …, 2016).
# Legend:
# [1] = test system: P. falciparum HB3 infected cultures; assay: High content image-based assay of merozoite egress and invasion; format: cell-based, Plasmodium falciparum; details: HB3, treated at 42 hpi, 10 μM, 24 h
# Microsomal stability = format: in vitro ADME; details: mouse, liver microsomes
# [2] = test system: Synchronized P. falciparum Dd2 cultures; assay: Flow cytometric profiling of inhibition, YOYO-1 staining; format: cell-based, Plasmodium falciparum; details: Dd2, treated at 6 hpi ring stage, 5×EC50, sampled at 12 h intervals
# [3] = Double-sink parallel artificial membrane permeability assay; format: in vitro ADME
smiles,measurement,setting,value
CC(C)C[C@H](NC(=O)[C@H]1O[C@@H]1C(=O)O)C(=O)NCCCCN=C(N)N [E-64],Effect on merozoite egress and invasion,[1],blocked egress
C[C@]12CC[C@H]3[C@@H](CCC4=CC(=O)CC[C@@]43C)[C@@H]1CC[C@@H]2O [Testosterone],remaining at 1 h,Microsomal stability,26.1%
C[C@@H]1CC[C@H]2[C@@H](C)C(=O)O[C@@H]3O[C@@]4(C)CC[C@@H]1[C@]32OO4 [artemisinin],Effect on merozoite egress and invasion,[1],did not block merozoite egress or invasion
same,Effect on parasite maturation by flow cytometry (DNA content),[2],maturation is blocked
COCCc1ccc(OCC(O)CNC(C)C)cc1 (stereo not shown) [metoprolol],Permeability pH 5.0 (−logPe),[3]; pH 5.0,> 5.4 −logPe
same,Permeability pH 6.2 (−logPe),[3]; pH 6.2,4.4 −logPe
same,Permeability pH 7.4 (−logPe),[3]; pH 7.4,3.6 −logPe
